Results reported in patent US20060079453A1, “Hla binding peptides and their uses” (priority 2002, published 2006).
Where two headings read alike, the source gives them in different places. No end group written: not given here.

Experiments:
HLA-DR DRB5*0201 = format: binding, human; details: read-out: DRB5 *0201
HLA-DR DRB5*0101 (DR51) = HLA-DR DRB5*0101 (DR51) (Homo sapiens, UniProt P01903+Q30154); experiment: biochemical; format: binding
HLA-DR DRB1*0101 (DR1) = HLA-DR DRB1*0101 (DR1) (Homo sapiens, UniProt P01903+P01911, A100R/D57E/F55L/F60I/F76Y/I96L/L162R/M171V/P40L/Q125E/R42F/V115G/Y59C); experiment: biochemical; format: binding
HLA-DR DRB1*1101 (DR11) = HLA-DR DRB1*1101 (DR11) (Homo sapiens, UniProt P01903+P01911, A100R/A169T/A87E/I96F/K41T/L162R/M171V/P40S/Q125H/Q178H/Q39Y/Q99D/R42S/S66Y/T262R/V115G/W38E); experiment: biochemical; format: binding
HLA-DR DRB1*0401 (DR4) = HLA-DR DRB1*0401 (DR4) (Homo sapiens, UniProt P01903+P01911, A100K/A169T/F76Y/I96L/K127E/L162R/M171V/N62H/P40V/Q125Y/R42H/S133A/S149N/S66Y/V115G/V209L/W38E); experiment: biochemical; format: binding
HLA-DR DRB3*0101 (DR52) = HLA-DR DRB3*0101 (DR52) (Homo sapiens, UniProt P01903+P79483); experiment: biochemical; format: binding
HLA-DR DRB1*0701 (DR7) = HLA-DR DRB1*0701 (DR7) (Homo sapiens, UniProt P01903+P01911, A100R/A102G/A103Q/D57E/D86V/E43K/F76Y/K127E/L162R/M171V/P40G/Q125H/Q99D/R33Q/R42Y/R54Q/S133A/S66F/T210M/V115G/Y107V/Y59L/Y89S); experiment: biochemical; format: binding
[1] = biological target: HLA-DQ DQA1*0301/B*0301 (DQ7) (Homo sapiens, UniProt P01909+P01920, A209T/C70Q/DUP78-78/E183D/F237L/G63E/I129T/K197E/L178F/L74F/L98V/Q57E/Q76R/S185I/S97I/T49S/V73L); experiment: biochemical; format: binding
HLA-DR DRB1*0301 (DR3) = HLA-DR DRB1*0301 (DR3) (Homo sapiens, UniProt P01903+P01911, A100K/A102G/A103R/A169T/F55Y/I96L/K41T/L162R/M171V/P40S/Q125H/Q178H/Q39Y/R42S/S66N/T106N/T262R/W38E/Y61H); experiment: biochemical; format: binding
[2] = biological target: HLA-DQ DQA1*0501/B*0201 (DQ2) (Homo sapiens, UniProt P01909+P01920, A45G/A70V/D89A/E106A/E77G/E98D/H199R/L107V/N214S/P84L/P87L/T103K/T109R/T172A/T60S/V78E/V99I/Y58L/Y62S/Y69I/Y79F); experiment: biochemical
HLA-DR DRB1*0405 (DR4) = HLA-DR DRB1*0405 (DR4) (Homo sapiens, UniProt P01903+P01911, A100R/A169T/D86S/F76Y/I96L/K127E/L162R/M171V/N62H/P40V/Q125Y/R42H/S133A/S149N/S66Y/V115G/V209L/W38E); experiment: biochemical; format: binding; details: DRB1 *0405
HLA-DR DRB4*0101 (DR53) = HLA-DR DRB4*0101 (DR53) (Homo sapiens, UniProt P01903+P13762, G164S); experiment: biochemical; format: binding; details: DRB4 *0101
HLA-DR DRB1*0901 (DR9) = HLA-DR DRB1*0901 (DR9) (Homo sapiens, UniProt P01903+P01911, A100R/A103E/D57H/D86V/F55Y/F60I/F76Y/I96F/K127E/L162R/M171V/P40D/Q125H/Q99R/R33Q/R42F/S133A/S66N/T210M/V115G/W38K/Y107V/Y59G/Y89S); experiment: biochemical; format: binding; details: DRB1 *0901
HLA-DR DRB1*0802 (DR8) = HLA-DR DRB1*0802 (DR8) (Homo sapiens, UniProt P01903+P01911, A100R/A103L/A169T/F76Y/H45Y/I96F/K41T/L162R/M171V/P40S/Q125H/Q178H/Q39Y/Q99D/R218S/R42G/S66Y/V115G/W38E); experiment: biochemical; format: binding
[3] = biological target: HLA-DQ DQA1*0301/B*0302 (DQ8) (Homo sapiens, UniProt P01909+P01920, A209T/A45G/C70Q/D89A/DUP78-78/E183D/E77G/F237L/G63E/H199R/I129T/K197E/L178F/L74F/L98V/Q57E/Q76R/S185I/S97I/T217I/T49S/V73L/Y58L); experiment: biochemical
HLA-DR DRB1*1302 (DR13) = HLA-DR DRB1*1302 (DR13) (Homo sapiens, UniProt P01903+P01911, A100E/A169T/K41T/L162R/M171V/P40S/Q125H/Q178H/Q39Y/Q99D/R42S/S66N/T262R/V115G/W38E/Y61H); experiment: biochemical; format: binding; details: DRBI *1302
HLA-DR DRB1*1501 (DR15) = HLA-DR DRB1*1501 (DR15) (Homo sapiens, UniProt P01903+P01911); experiment: biochemical; format: binding; details: DRBI *1501

HLA-DR DRB1*1101 (DR11), sequence (P01903 26-254 limits assumed, other chains not shown): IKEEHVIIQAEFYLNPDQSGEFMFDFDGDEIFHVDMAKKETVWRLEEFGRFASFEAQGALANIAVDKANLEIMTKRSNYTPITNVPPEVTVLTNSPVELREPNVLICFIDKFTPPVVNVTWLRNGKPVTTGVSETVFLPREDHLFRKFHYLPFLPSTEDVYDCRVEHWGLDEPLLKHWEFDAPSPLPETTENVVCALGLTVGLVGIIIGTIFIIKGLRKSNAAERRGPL
HLA-DR DRB1*1302 (DR13), sequence (P01903 26-254 limits assumed, other chains not shown): as above
HLA-DR DRB1*0301 (DR3), sequence (P01903 26-254 limits assumed, other chains not shown): as above

Substance	IC50 (HLA-DR DRB1*0301 (DR3))	IC50 [2]	IC50 (HLA-DR DRB1*0405 (DR4))	IC50 (HLA-DR DRB4*0101 (DR53))	IC50 (HLA-DR DRB3*0101 (DR52))	IC50 (HLA-DR DRB1*0901 (DR9))	IC50 (HLA-DR DRB1*0802 (DR8))	IC50 (HLA-DR DRB1*0701 (DR7); DRB1 *0701)	IC50 (HLA-DR DRB1*0101 (DR1); DRB1 *0101)	IC50 (HLA-DR DRB1*1101 (DR11); DRB1 *1101)	IC50 [3]	IC50 (HLA-DR DRB1*0401 (DR4); DRB1 *0401)	IC50 (HLA-DR DRB1*1302 (DR13))	IC50 [1]	IC50 (HLA-DR DRB1*1501 (DR15))	IC50 (HLA-DR DRB5*0101 (DR51); DRB5 *0101)	further results
(15A)RQTTLKAAA																	IC50 (HLA-DR DRB5*0201): 3100 nM; IC50 (HLA-DR DRB5*0101 (DR51); read-out: DRB5 *0101): 9.5 nM; IC50 (HLA-DR DRB1*0101 (DR1); read-out: DRB1 *0101): 4.2 nM; IC50 (HLA-DR DRB1*1101 (DR11); read-out: DRB1 *1101): 1.8 nM; IC50 (HLA-DR DRB1*0401 (DR4); read-out: DRB1 *0401): 0.31 nM
AAFAAAKTAAAFA																	IC50 (HLA-DR DRB5*0201): 6.4 nM; IC50 (HLA-DR DRB3*0101 (DR52); read-out: DRB3 *0101): 20000 nM; IC50 (HLA-DR DRB5*0101 (DR51); read-out: DRB5 *0101): 25 nM; IC50 (HLA-DR DRB1*0701 (DR7); read-out: DRB1 *0701): 67 nM; IC50 (HLA-DR DRB1*0101 (DR1); read-out: DRB1 *0101): 1.3 nM; IC50 (HLA-DR DRB1*1101 (DR11); read-out: DRB1 *1101): 4.6 nM; IC50 (HLA-DR DRB1*0401 (DR4); read-out: DRB1 *0401): 0.19 nM; IC50 ([1]; read-out: DQB1*0301): 49 nM
GLALLSEAVLRGQAL [GLALLSEAVLRGQAL]	816 nM	6740 nM	1440 nM	3.5 nM	> 38200 nM	15100 nM	2000 nM	4610 nM	83 nM	2580 nM	17000 nM	11 nM	1220 nM	107 nM			
GSHLVEALYLVCGER	> 187000 nM	677 nM	4610 nM	372 nM	> 18700 nM	5390 nM	> 54400 nM	560 nM	525 nM	> 10500 nM	2490 nM	8290 nM	8030 nM	> 89300 nM	1350 nM	29300 nM	
IDVWLGGLAENFLPY		13 nM									138 nM			204 nM			
IDVWLGGLAKNFLPY		> 4170 nM															
ISLLLIQSWLEPVQF	27900 nM	5230 nM	0.86 nM	2.5 nM	6760 nM		> 33300 nM	83 nM	184 nM	2680 nM	562 nM	885 nM	120 nM	> 89300 nM	60 nM	> 9960 nM	
LQLHVDKAVSGLRSL	22 nM	7590 nM	13600 nM	31 nM	1040 nM	> 78900 nM	801 nM	3210 nM		910 nM	7840 nM	9.7 nM	53 nM	88 nM	2710 nM	76 nM	
MSYNLLGFLQRSSNT	108000 nM		433 nM	4660 nM	51800 nM	8970 nM	900 nM	8870 nM		3070 nM	> 51200 nM		1330 nM		6.8 nM	9 nM	
QHLCGSHLVEALYLV	48600 nM	359 nM	9820 nM	1480 nM	14800 nM	7420 nM	> 54400 nM	86 nM	170 nM	> 10500 nM	8410 nM	13000 nM	7620 nM	2550 nM		32000 nM	
RLFDNASLRAHRLHQ	97 nM			3210 nM	11400 nM	23800 nM	15000 nM		89 nM		> 36200 nM	77 nM	84 nM		85 nM	557 nM	
SAAPLRTITADTFRK		1100 nM	1460 nM				28100 nM	3650 nM			> 46700 nM			301 nM			
WKRMEVGQQAVEVWQ		159 nM	94 nM		> 42200 nM	14700 nM		46100 nM	62 nM	512 nM	12100 nM	24 nM	159 nM	13700 nM		4300 nM	
YAR(15A)RQTTLKAAA																	IC50 (HLA-DR DRB5*0201): 62 nM; IC50 (HLA-DR DRB5*0101 (DR51); read-out: DRB5 *0101): 0.94 nM; IC50 (HLA-DR DRB1*1101 (DR11); read-out: DRB1 *1101): 1.2 nM
YAR(15A)SQTTLKAKT																	IC50 (HLA-DR DRB5*0201): 48 nM; IC50 (HLA-DR DRB5*0101 (DR51); read-out: DRB5 *0101): 1.4 nM; IC50 (HLA-DR DRB1*0101 (DR1); read-out: DRB1 *0101): 2.4 nM; IC50 (HLA-DR DRB1*1101 (DR11); read-out: DRB1 *1101): 2.5 nM; IC50 (HLA-DR DRB1*0401 (DR4); read-out: DRB1 *0401): 0.78 nM
